Measured values published in PubChem BioAssay AID2060614 (Molecular Pharmacology Branch, DTP, NCI, 2025).
“And” between values parts separate entries of the source, which are not always exact repeats. Equal values may be shown once.

Test system: 598228-144-R-J1-PDC complex spheroids, viability
Assay: Anticancer human tumor 598228-144-R-J1-PDC patient-derived serous endometrial adenocarcinoma cell line growth inhibition [CLK]
Conditions: for viability, T/C: stronger effect = lower value
How it was run: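 Multi-cell-type spheroids combined patient-derived tumor cells with HUVEC endothelial cells and human mesenchymal stem cells. Paired agents were dosed in half-log steps down from about clinical Cmax, or from 10 microM where Cmax was unknown.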
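Also: spheroids exposed to compounds for seven days before readout.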
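For viability, T/C in this document: 100% = DMSO vehicle control wells.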

Work on Nc1ccccc1NC(=O)c1ccc(CNC(=O)OCc2cccnc2)cc1 + CNC(=O)c1ccc(Nc2nc(OC3CCCC3)c3c(-c4ccc5nc(C)oc5c4)c[nH]c3n2)c(OC)c1 yielded an IC50 (curve of first compound, second compound 0.0316 µM) of 1.89 µM, an IC50 (curve of first compound, second compound 0.1 µM) of 1.93 µM and an IC50 (curve of first compound, second compound 0.316 µM) of 2 µM. It also gave an IC50 (curve of first compound, second compound 1 µM) of 2.2 µM, an IC50 (curve of first compound, second compound 3.16 µM) of 1.33 µM and an IC50 (curve of first compound, second compound 10 µM) of 1.02 µM. It also gave a viability, T/C (second compound 0.0316 µM, first compound 0.0316 µM) of 115%, a viability, T/C (second compound 0.0316 µM, first compound 0.1 µM) of 105% and a viability, T/C (second compound 0.0316 µM, first compound 0.316 µM) of 101%. The viability, T/C (second compound 0.0316 µM, first compound 1 µM) was 83%, the viability, T/C (second compound 0.0316 µM, first compound 3.16 µM) was 23.1% and the viability, T/C (second compound 0.0316 µM, first compound 10 µM) was 12.2%. The viability, T/C (second compound 0.1 µM, first compound 0.0316 µM) was 111%, the viability, T/C (second compound 0.1 µM, first compound 0.1 µM) was 97.8% and the viability, T/C (second compound 0.1 µM, first compound 0.316 µM) was 91.4%. The viability, T/C (second compound 0.1 µM, first compound 1 µM) was 79.7%, the viability, T/C (second compound 0.1 µM, first compound 3.16 µM) was 28.4% and the viability, T/C (second compound 0.1 µM, first compound 10 µM) was 7.48%. The viability, T/C (second compound 0.316 µM, first compound 0.0316 µM) was 111%, the viability, T/C (second compound 0.316 µM, first compound 0.1 µM) was 105% and the viability, T/C (second compound 0.316 µM, first compound 0.316 µM) was 93%. For the same compound, the viability, T/C (second compound 0.316 µM, first compound 1 µM) was 66.6%, the viability, T/C (second compound 0.316 µM, first compound 3.16 µM) was 39% and the viability, T/C (second compound 0.316 µM, first compound 10 µM) was 4.74%. For the same compound, the viability, T/C (second compound 1 µM, first compound 0.0316 µM) was 110%, the viability, T/C (second compound 1 µM, first compound 0.1 µM) was 81.9% and the viability, T/C (second compound 1 µM, first compound 0.316 µM) was 88.7%. The viability, T/C (second compound 1 µM, first compound 1 µM) was 65%, the viability, T/C (second compound 1 µM, first compound 3.16 µM) was 45.6% and the viability, T/C (second compound 1 µM, first compound 10 µM) was 6.12%. The viability, T/C (second compound 3.16 µM, first compound 0.0316 µM) was 91.6%, the viability, T/C (second compound 3.16 µM, first compound 0.1 µM) was 86.5% and the viability, T/C (second compound 3.16 µM, first compound 0.316 µM) was 70.2%. For the same compound, the viability, T/C (second compound 3.16 µM, first compound 1 µM) was 55.1%, the viability, T/C (second compound 3.16 µM, first compound 3.16 µM) was 34.4% and the viability, T/C (second compound 3.16 µM, first compound 10 µM) was 4.38%. The viability, T/C (second compound 10 µM, first compound 0.0316 µM) was 100%, the viability, T/C (second compound 10 µM, first compound 0.1 µM) was 88.9% and the viability, T/C (second compound 10 µM, first compound 0.316 µM) was 73.3%. It also gave a viability, T/C (second compound 10 µM, first compound 1 µM) of 50.5%, a viability, T/C (second compound 10 µM, first compound 3.16 µM) of 25.8% and a viability, T/C (second compound 10 µM, first compound 10 µM) of 4.15%.
C=CC(=O)Nc1cc(Nc2nccc(-c3cn(C)c4ccccc34)n2)c(OC)cc1N(C)CCN(C)C was tested, and the viability, T/C (compound 0.000949 µM) was 106% and 86.2%, the viability, T/C (compound 0.003 µM) was 95.3% and 97.7% and the viability, T/C (compound 0.00949 µM) was 108% and 95.7%. For the same compound, the viability, T/C (compound 0.03 µM) was 93.7% and 93.5%, the viability, T/C (compound 0.0949 µM) was 99.3% and 92.6% and the viability, T/C (compound 0.3 µM) was 92.1% and 94.7%. It also gave an IC50 (curve of compound) greater than 0.3 µM.
